Test results taken from PMC12238837, “DCAF16‐Based Covalent Molecular Glues for Targeted Protein Degradation of Histone Deacetylases” (Archiv Der Pharmazie, 2025).

What was measured:
HDAC1 [1] = target: T1, HDAC1 (Homo sapiens, UniProt Q13547); test: HDAC enzyme inhibition assay (ZMAL substrate), HDAC1; type: biochemical; design: purchased BPS Bioscience 50051; settings: n = 2, mean ± SD
Protocol: (§1) The total assay volume of 50 μL (HDAC2/3/6 max. 1% DMSO; HDAC1 max. 5% DMSO) was incubated at 37°C for 90 min. Subsequently, 50 μL of trypsin (0.4 mg/mL) in trypsin buffer (50 mM Tris−HCl, pH 8.0, 100 mM NaCl) was added, followed by an additional 30 min of incubation at 37°C. Fluorescence (excitation λ = 355 nm, emission λ = 460 nm) was measured using a FLUOstar OPTIMA microplate reader. The IC50 was determined by plotting dose–response curves and performing nonlinear regression using GraphPad Prism.
as §1, with “by” for “by an”, “dose response” for “dose–response”, “Prism.^[3-6]” for “Prism.”

[2] = target: T2, Human recombinant HDAC3/NcoR2 (Homo sapiens, UniProt O15379); test: HDAC enzyme inhibition assay (ZMAL substrate), HDAC3; type: biochemical; settings: n = 2, mean ± SD
T2 construct: purchased BPS Bioscience 50003
Protocol: as §1
as §1, with “by” for “by an”, “dose response” for “dose–response”, “Prism.^[3-6]” for “Prism.”

HDAC2 = HDAC2 (Homo sapiens, UniProt Q92769); test: HDAC enzyme inhibition assay (ZMAL substrate), HDAC2; type: biochemical; design: purchased BPS Bioscience 50052; settings: n = 2, mean ± SD
Protocol: as §1
as §1, with “by” for “by an”, “dose response” for “dose–response”, “Prism.^[3-6]” for “Prism.”

HDAC1 [3] = target: T1, HDAC1; test: HDAC1 degradation, western blot in MM.1S cells; type: cell-based; design: endogenous in cells; host or cells: MM.1S; settings: 25 μM, 24 h, immunoblot
Protocol: First, the multiple myeloma cell line MM.1S was treated with varying concentrations (1, 10, and 25 µM) of degraders 10a–d for 6 and 24 h, respectively. HDAC1 and HDAC6 were selected for investigation due to their critical roles in various diseases such as cancer. HDAC1 and HDAC6 protein levels were subsequently evaluated using western blot analysis. […] This limited efficacy could be due to insufficient incubation time of the compounds with MM.1S cells. […] All compounds still exerted no degradation of HDAC6 at different concentrations after 24 h of treatment. However, different from 10b–d, degrader 10a, which contains a hydroxamic acid as ZBG, achieved substantial degradation of HDAC1 with a maximal degradation (D max) value of 74% at 25 μM. Consequently, Compound 10a was selected for further biological evaluations based on the initial screening results.
The MM.1S was obtained from ATCC (Manassas, VA, USA). MM.1S cells were cultivated in RPMI 1640 medium supplemented with 10% FBS, 100 IU/mL penicillin, 0.1 mg/mL streptomycin, and 1 mM sodium pyruvate at 37°C in a 5% CO2 atmosphere.
(§2) The MM.1S cells (3 × 10^6 cells/mL) were seeded into cell culture flasks and, after 72 h, treated with the indicated concentration of compound or DMSO for the given time. Cell lysis was performed with Cell Extraction Buffer and the addition of Halt Protease Inhibitor Cocktail and phenylmethanesulfonyl fluoride. Protein content was determined by Pierce BCA Protein Assay Kit. Samples were denatured by Laemmli 2× Concentrate, and Precision Plus Protein Unstained Standard was used as a molecular weight marker in all cases. SDS‐PAGE was performed with 10% Mini‐PROTEAN TGX Stain‐Free Gel (Catalog# 458035, Bio‐Rad, Hercules, CA, USA) at 200 V for 50 min (Catalog# 458035, Bio‐Rad). Afterwards, proteins were transferred with the Trans‐Blot Turbo Transfer System to Immobilon‐FL PVDF membranes at 1.0 A for 30 min and incubated with 5% milk‐powder solution for 1 h at room temperature under slight agitation. […] The ChemiDoc XRS+ System was used for detection, and Image Lab Software 6.1 (Bio‐Rad, Hercules, CA, USA) for quantification.

[4] = system: acetylated α‐tubulin (marker of decreased HDAC6 activity); test: Cellular target engagement: immunoblot of acetylated α-tubulin; type: cell-based; settings: MM.1S cells, 10 µM, 24 h
Protocol: (§3) Immunoblot analysis of acetylated histone H3 (A) and α‐tubulin (B) in MM.1S cell lysates after treatment with the indicated compounds (10 µM) or vehicle (DMSO) for 24 h. Representative images from a total of n = 2 replicates.
as §2, with “agitation. Subsequently, the membranes were incubated with anti‐HDAC1 (Catalog# 5356S, Cell Signaling Technology, Denver, MA, USA), anti‐HDAC2 (Catalog# 9959S, Cell Signaling Technology, Denver, MA, USA), anti‐HDAC3 (Catalog# 85057S, Cell Signaling Technology, Denver, MA, USA), anti‐HDAC4 (Catalog# 7628S, Cell Signaling Technology, Denver, MA, USA), anti‐HDAC6 (Catalog# 7558S, Cell Signaling Technology, Denver, MA, USA), anti‐acetyl‐histone H3 (Catalog# 9677S, Cell Signaling Technology, Denver, MA, USA), anti‐acetyl‐α‐tubulin (Catalog# 5335, Cell Signaling Technology, Denver, MA, USA), or anti‐GAPDH (Catalog# T0004, Affinity Biosciences, Cincinnati, OH, USA) antibody solutions in 1:1000–1:20000 dilutions at room temperature under slight agitation for 1 h, then put membranes at 4°C for overnight.” for “agitation.”

[5] = system: acetylated histone H3 (indicator of reduced HDAC1‐3 activity); test: Cellular target engagement: immunoblot of acetylated histone H3; type: cell-based; settings: MM.1S cells, 10 µM, 24 h
Protocol: as §3
as §2, with “agitation. Subsequently, the membranes were incubated with anti‐HDAC1 (Catalog# 5356S, Cell Signaling Technology, Denver, MA, USA), anti‐HDAC2 (Catalog# 9959S, Cell Signaling Technology, Denver, MA, USA), anti‐HDAC3 (Catalog# 85057S, Cell Signaling Technology, Denver, MA, USA), anti‐HDAC4 (Catalog# 7628S, Cell Signaling Technology, Denver, MA, USA), anti‐HDAC6 (Catalog# 7558S, Cell Signaling Technology, Denver, MA, USA), anti‐acetyl‐histone H3 (Catalog# 9677S, Cell Signaling Technology, Denver, MA, USA), anti‐acetyl‐α‐tubulin (Catalog# 5335, Cell Signaling Technology, Denver, MA, USA), or anti‐GAPDH (Catalog# T0004, Affinity Biosciences, Cincinnati, OH, USA) antibody solutions in 1:1000–1:20000 dilutions at room temperature under slight agitation for 1 h, then put membranes at 4°C for overnight.” for “agitation.”

T1 sequence (Q13547 whole entry): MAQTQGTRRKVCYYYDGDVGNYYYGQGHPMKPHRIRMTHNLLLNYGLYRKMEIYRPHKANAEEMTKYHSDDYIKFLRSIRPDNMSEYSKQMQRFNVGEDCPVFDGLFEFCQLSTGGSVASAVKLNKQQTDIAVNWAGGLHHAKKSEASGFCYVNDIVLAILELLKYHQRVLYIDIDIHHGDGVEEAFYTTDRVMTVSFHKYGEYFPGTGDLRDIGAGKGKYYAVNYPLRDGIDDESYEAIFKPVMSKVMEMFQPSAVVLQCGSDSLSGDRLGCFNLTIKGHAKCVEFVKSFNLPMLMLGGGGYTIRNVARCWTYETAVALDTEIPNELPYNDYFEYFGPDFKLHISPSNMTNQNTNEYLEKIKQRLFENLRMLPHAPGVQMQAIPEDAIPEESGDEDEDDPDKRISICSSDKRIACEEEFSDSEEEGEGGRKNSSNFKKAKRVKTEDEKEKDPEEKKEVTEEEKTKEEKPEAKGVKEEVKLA
Chain of HDAC2 (Q92769 whole entry): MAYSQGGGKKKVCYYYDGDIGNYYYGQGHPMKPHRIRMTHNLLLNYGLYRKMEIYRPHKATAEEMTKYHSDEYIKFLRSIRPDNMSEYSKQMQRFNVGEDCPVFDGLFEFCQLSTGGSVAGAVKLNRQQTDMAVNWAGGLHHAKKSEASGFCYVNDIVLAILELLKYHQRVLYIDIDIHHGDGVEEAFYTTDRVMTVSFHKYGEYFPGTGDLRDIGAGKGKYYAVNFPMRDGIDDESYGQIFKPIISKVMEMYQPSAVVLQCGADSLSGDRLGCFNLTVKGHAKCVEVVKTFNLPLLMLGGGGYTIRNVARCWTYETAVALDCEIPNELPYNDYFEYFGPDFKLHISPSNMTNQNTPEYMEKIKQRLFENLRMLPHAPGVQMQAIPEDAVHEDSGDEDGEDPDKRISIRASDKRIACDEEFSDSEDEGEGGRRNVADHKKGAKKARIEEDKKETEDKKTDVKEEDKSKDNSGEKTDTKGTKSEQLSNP
T2 sequence (O15379 whole entry): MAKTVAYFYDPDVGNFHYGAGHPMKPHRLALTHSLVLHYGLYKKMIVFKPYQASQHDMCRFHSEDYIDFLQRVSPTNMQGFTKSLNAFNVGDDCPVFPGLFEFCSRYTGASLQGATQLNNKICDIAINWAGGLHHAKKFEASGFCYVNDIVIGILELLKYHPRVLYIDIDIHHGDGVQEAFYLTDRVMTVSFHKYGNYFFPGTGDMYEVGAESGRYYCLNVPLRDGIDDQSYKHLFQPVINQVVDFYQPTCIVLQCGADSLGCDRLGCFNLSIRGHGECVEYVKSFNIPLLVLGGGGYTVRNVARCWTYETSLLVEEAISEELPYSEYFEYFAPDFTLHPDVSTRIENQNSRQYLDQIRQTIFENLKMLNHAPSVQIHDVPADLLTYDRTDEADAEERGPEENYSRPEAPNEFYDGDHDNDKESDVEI
T2 sequence (Q9Y618 395-489 partner limits assumed): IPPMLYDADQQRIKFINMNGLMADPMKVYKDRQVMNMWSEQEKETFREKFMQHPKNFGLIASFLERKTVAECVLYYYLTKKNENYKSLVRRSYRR

Compound | IC50 (HDAC1 [1]) | IC50 [2] | IC50 (HDAC2) | HDAC1 protein levels (HDAC1 [3]) | level of acetylated α-tubulin [4] | level of acetylated histone H3 [5]
CCS(=O)(=O)N1CCN(C(=O)Cc2ccc(NC(=O)CCCCCCC(=O)NO)cc2)CC1 [10a‐nc, N ^1‐(4‐{2‐[4‐(Ethylsulfonyl)piperazin‐1‐yl]‐2‐Oxoethyl}phenyl)‐N ^8‐Hydroxyoctanediamide] | 229 ± 4 nM | 323 ± 22 nM | 423 ± 63 nM | did not affect HDAC1 levels |  | 
C=CS(=O)(=O)N1CCNCC1 [Compound 8, 1‐(Vinylsulfonyl)piperazine, reference compound] |  |  |  |  | no effects | no effects
